Results reported in patent EP0977755B1, “HETEROCYCLIC COMPOUNDS AND THEIR PREPARATION AND USE” (NOVO NORDISK A/S, priority 1997, dated 1998).
Structures can show the parent of a compound that is named as a salt. Where two headings read alike, the source gives them in different places.

Biological target: T1, m1 muscarinic receptor (Rattus norvegicus, UniProt P08482)
T1 construct: expressed in transfected cells; host or cells: A9 L cells (mouse fibroblast line)
T1 sequence (P08482 1-460): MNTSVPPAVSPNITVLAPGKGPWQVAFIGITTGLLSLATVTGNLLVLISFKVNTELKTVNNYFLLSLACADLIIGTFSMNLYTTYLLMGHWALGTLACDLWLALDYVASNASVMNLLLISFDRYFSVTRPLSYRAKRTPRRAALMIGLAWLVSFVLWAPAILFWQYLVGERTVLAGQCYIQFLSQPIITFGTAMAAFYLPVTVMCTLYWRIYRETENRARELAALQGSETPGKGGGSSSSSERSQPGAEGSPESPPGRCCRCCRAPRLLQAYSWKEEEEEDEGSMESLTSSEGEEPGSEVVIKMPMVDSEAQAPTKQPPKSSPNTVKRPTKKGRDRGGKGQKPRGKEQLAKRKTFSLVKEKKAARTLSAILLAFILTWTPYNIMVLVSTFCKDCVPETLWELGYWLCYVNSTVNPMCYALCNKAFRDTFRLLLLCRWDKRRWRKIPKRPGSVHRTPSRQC
Test: IP hydrolysis in A9 L cells cloned with the genetic m1 muscarinic receptor
Assay type: cell-based, human and rat
Details: for Emax: A9L-m1, 0.75 h, read-out: % PI (efficacy); for Emax / % PI (efficacy): percentage of total [3H]IP accumulated in the presence of 100 µM carbachol stimulation, 37°C for 45 min; for EC50: IP hydrolysis, seven point curves, three separate experiments
Method: IP hydrolysis in A9 L cells cloned with the genetic m, muscarinic receptor: A9 L cells transfected with human and rat m, muscarinic receptors (Dörje et al., 1991; Jones et al., 1988), were cultured to confluence in 75-ml flasks containing Dulbecco's modified essential media. Cells were prelabeled with 1 µCi/ml of myo(2-[^3H]inositol (Amersham Inc., 16.3 Ci/mmol) for 48 hr before assaying. On the day of assay, cells were detached using a 30-sec exposure to 0.25% trypsin in 1 mM EDTA. The cells were collected by centrifugation (300 x g for 5 min) and resuspended in oxygenated HEPES buffer containing 10 mM LiCl (NaCl 142 mM, KCl 5.6 mM, CaCl2 2.2 mM, MgCl2 1 mM, NaHCO3 3.6 mM, D-glucose 5.6 mM and Na^+ HEPES 30 mM, pH 7.4). Cells were incubated at 37°C for 45 min in the presence of varying concentrations of test compounds. Total IP hydrolysis was determined using the method of Schoepp and Johnson (1988). […] Half-maximal (EC50) values were determined from the mean (±S.D.) of seven point curves determined from three separate experiments.

Emax [%] | EC50 (read-out: EC50) [nM] | % PI (efficacy) (45 min) [%] | % PI (efficacy) [%] | SMILES | EC50 (EC50, nM) [nM]
56 | 14 |  |  | CC(C)C(C#Cc1ccsc1)Oc1nsnc1C1CN2CCC1C2 (mixture of isomers) [Compound 16, Exo (+-) 3-(3-(1-(3-Thienyl)-4-methyl-1-pentyn-3-yloxy)-1 ,2,5-thiadiazol-4-yl)-1-azabicyclo[2.2.1]heptane, (+)-tartrate] | 
80 | 210 |  |  | C(#Cc1ccccc1)COc1nsnc1[C@H]1CN2CC[C@@H]1C2 (racemic) [Compound 1, Endo (+-) 3-(3-(3-Phenyl-2-propyn-1-yloxy)-1,2,5-thiadiazol-4-yl)-1-azabicyclo[2 2.1]heptane,(+)--tartrate] | 
74 | 1800 |  |  | Fc1ccc(C#CCOc2nsnc2[C@H]2CN3CC[C@@H]2C3)cc1 (racemic) [Compound 2, Endo (+-) 3-(3-(3-(4-Fluorophenyl)-2-propyn-1-yloxy)-1,2,5-thiadiazol-4-yl)-1-azabicyclo[2.2.1]heptane,(+)-tartrate] | 
100 | 0.7 |  |  | C(#Cc1ccccc1)COc1nsnc1C1CN2CCC1C2 (racemic) [Compound 13, Exo (+-) 3-(3-(3-Phenyl-2-propyn-1-yloxy)-1.2.5-thiadlazol-4-yl)-1-azabicyclo[2 2.1]heptane, (+)-tartrate] | 
 |  |  |  | C(#Cc1ccccc1)COc1nsnc1C1CN2CCC1CC2 (racemic) [Compound 53, (+-)3-(3-(3-Phenyl-2-propyn-1-yloxy)-1,2,5-thiadiazol-4-yl)-1-azabicyclo[2.2.2]octane, oxalate] | 13
81 | 95 |  |  | Fc1ccc(C#CCOc2nsnc2[C@H]2CN3CC[C@@H]2C3)cc1 (single isomer, unassigned) [Compound 3, Endo (α)-3-(3-(3-(4-Fluorophenyl)-2-propyn-1-yloxy)-1.2.5-thiadiazol-4-yl)-1-azabicyclo[2.2.1]heptane.(+)-tartrate] | 
 | 159 | 77 |  | C(#Cc1ccccc1)COc1nsnc1[C@H]1CN2CC[C@@H]1C2 (single isomer, unassigned) [Compound 4, Endo (α)-3-(3-(3-Phenyl-2-propyn-1-yloxy)-1,2,5-thiadiazol-4-yl)-1-azabicyclo[2.2.1]heptane, (+)-tartrate] | 
 | 42 | 73 |  | COc1cccc(C#CCOc2nsnc2[C@H]2CN3CC[C@@H]2C3)c1 (single isomer, unassigned) [Compound 5, Endo (α)-3-(3-(3-(3-Methoxyphenyl)-2-propyn-1-yloxy)-1,2,5-thiadiazol-4-yl)-1-azabicyclo[2.2.1]heptane, (+)-tartrate] | 
108 | 380 |  |  | C(#Cc1ccsc1)COc1nsnc1[C@H]1CN2CC[C@@H]1C2 (single isomer, unassigned) [Compound 7, Endo (α)-3-(3-[3-(3-Thienyl)-2-propyn-1-yloxy]-1,2,5-thiadiazol-4-yl)-1-azabicyclo[2.2 1]heptane, (+)-tartrate] | 
91 | 670 |  |  | C(#Cc1cccs1)COc1nsnc1[C@H]1CN2CC[C@@H]1C2 (single isomer, unassigned) [Compound 8, Endo (α)-3-(3-(3-(2-Thienyl)-2-propyn-1-yloxy)-1,2,5-thiadiazol-4-yl)-1-azabicyclo[2 2 1]heptane. (+)-tartrate] | 
 | 38 | 68 |  | Fc1ccc(C#CCOc2nsnc2[C@H]2CN3CC[C@@H]2C3)cc1 (single isomer, unassigned) [Compound 9, Endo (β)-3-(3-(3-(4-Fluorophenyl)-2-propyn-1-yloxy)-1.2.5-thiadiazol-4-yl)-1-azabicyclo[2 2.1]heptane, (-)-tartrate] | 
57 | 75 |  |  | COc1cccc(C#CCOc2nsnc2[C@H]2CN3CC[C@@H]2C3)c1 (single isomer, unassigned) [Compound 10, Endo (β)-3-(3-(3-(3-Methoxyphenyl)-2-propyn-1-yloxy)-1,2,5-thiadiazol-4-yl)-1-azabicyclo[2.2.1]heptane, (-)-tartrate] | 
64 | 98 |  |  | C(#Cc1ccccc1)COc1nsnc1[C@H]1CN2CC[C@@H]1C2 (single isomer, unassigned) [Compound 11, Endo (β)-3-(3-(3-Phenyl-2-propyn-1-yloxy)-1,2,5-thiadiazol-4-yl)-1-azabicyclo[2.2.1]heptane, (+)-tartrate] | 
98 | 1 |  |  | C(#Cc1ccccc1)CSc1nsnc1[C@@H]1CN2CCC[C@H]1C2 [Compound 20, Endo (5R,6S)-6-(3-(3-Phenyl-2-propyn-1-ylthio)-1,2,5-thiadiazol-4-yl)-1-azabicyclo[3,2 1]octane, (+)-tartrate] | 
67 | 105 |  |  | Fc1cccc(C#CCSc2nsnc2[C@@H]2CN3CCC[C@H]2C3)c1 [Compound 21, Endo (5R,6S)-6-(3-(3-(3-Fluorophenyl)-2-propyn-1-ylthio)-1,2,5-thiadiazol-4-yl)-1-azabicyclo[3.2.1]octane, (+)-tartrate] | 
105 | 300 |  |  | C(#Cc1ccsc1)CSc1nsnc1[C@@H]1CN2CCC[C@H]1C2 [Compound 24, Endo (5R,6S)-6-(3-(3-(3-Thienyl)-2-propyn-1-ylthio)-1,2,5-thiadiazol-4-yl)-1-azabicyclo[3.2.1]octane, (+)-tartrate] | 
69 | 210 |  |  | C(#Cc1cccs1)CSc1nsnc1[C@@H]1CN2CCC[C@H]1C2 [Compound 25, Endo (5R,6S)-6-(3-(3-(2-Thienyl)-2-propyn-1-ylthio)-1,2,5-thiadiazol-4-yl)-1-azabicyclo[3.2.1]octane, (+)-tartrate] | 
93 | 280 |  |  | C(#Cc1ccccc1)COc1nsnc1[C@@H]1CN2CCC[C@H]1C2 [Compound 26, Endo (5R,6S)-6-(3-(3-Phenyl-2-propyn-1-yloxy)-1,2,5-thiadiazol-4-yl)-1-azabicyclo[3 2 1]octane, (+)-tartrate] | 
79 | 187 |  |  | Fc1ccc(C#CCOc2nsnc2[C@@H]2CN3CCC[C@H]2C3)cc1 [Compound 27, Endo (5R,6S)-6-(3-(3-(4-Fluorophenyl)-2-propyn-1-yloxy)-1,2,5-thiadiazol-4-yl)-1-azabicyclo[3.2.1]octane, (+)-tartrate] | 
97 | 22 |  |  | COc1cccc(C#CCOc2nsnc2[C@@H]2CN3CCC[C@H]2C3)c1 [Compound 28, Endo (5R,6S)-6-(3-(3-(3-Methoxyphenyl)-2-propyn-1-yloxy)-1,2,5-thiadiazol-4-yl)-1-azabicyclo[3.2.1]octane, (+)-tartrate] | 
 | 20 |  | 82 | C(#Cc1ccsc1)COc1nsnc1[C@@H]1CN2CCC[C@H]1C2.O=C(O)C(O)C(O)C(=O)O [Compound 30, Endo (5R,6S)-6-(3-[3-(3-Thienyl)-2-propyn-1-yloxy]-1,2,5-thiadiazol-4-yl)-1-azabicyclo[3.2.1]octane, (+)-tartrate] | 
 |  |  |  | C(#Cc1cccnc1)COc1nsnc1[C@@H]1CN2CCC[C@H]1C2 [Compound 31, Endo (5R,6S)-6-(3-[3-(3-Pyridyl)-2-propyn-1-yloxy]-1,2,5-thiadiazol-4-yl)-1-azabicyclo[3.2.1]octane, (+)-tartrate] | 26
105 | 0.2 |  |  | C(#Cc1ccccc1)CSc1nsnc1[C@H]1C[N@@]2CCC[C@H]1C2 [Compound 39, Exo (5R,6R)-6-(3-(3-Phenyl-2-propyn-1-ylthio)-1,2,5-thiadiazol-4-yl)-1-azabicyclo[3.2.1]octane. (+)-tartrate] | 
102 | 0.5 |  |  | C(#Cc1ccccc1)COc1nsnc1[C@H]1C[N@@]2CCC[C@H]1C2 [Compound 40, Exo (5R,6R)-6-(3-(3-Phenyl-2-propyn-1-yloxy)-1,2,5-thiadiazol-4-yl)-1-azabicyclo[3.2.1]octane, oxalate] | 
100 | 2 |  |  | COc1cccc(C#CCOc2nsnc2[C@H]2CN3CCC[C@H]2C3)c1 [Compound 41, Exo (5R,6R)-6-(3-(3-(3-Methoxyphenyl)-2-propyn-1-yfoxy)-1,2,5-thiadiazol-4-yl)-1-azabicyclo[3.2.1]octane, oxalate] | 
99 | 12 |  |  | FC(F)(F)c1cccc(C#CCOc2nsnc2[C@H]2CN3CCC[C@H]2C3)c1 [Compound 42, Exo (5R,6R)-6-(3-(3-(3-Trifluoromethylphenyl)-2-propyn-1-yloxy)-1,2,5-thiadiazol-4-yl)-1-azabicyclo[3.2.1]octane, (+)-tartrate] | 
85 | 9 |  |  | COc1cccc(C#CC(C)Oc2nsnc2[C@H]2CN3CCC[C@H]2C3)c1 (stereo partly drawn) [Compound 43, Exo (5R,6R)-6-(3-(3-(3-Methoxyphenyl)-1-methyl-2-propyn-1-yloxy)-1,2,5-thiadiazol-4-yl)-1-azabicyclo[3.2.1]octane, (+)-tartrate] | 

SMILES | Emax [%] | EC50 (read-out: EC50) [nM] | % PI (efficacy) (45 min) [%] | % PI (efficacy) [%] | EC50 (EC50, nM) [nM]
Fc1ccc(C#CCOc2nsnc2C2CN3CCC2CC3)cc1 (racemic) [Compound 54, (+-) 3-(3-(3-(4-Fluorophenyl)-2-propyn-1-yloxy)-1,2,5-thiadiazol-4-yl)-1-azabicyclo[2.2.2]octane, oxalate] |  | 224 |  |  | 
